System: patients after acute myocardial infarction
Assay: Life quality, Seattle Angina Questionnaire (SAQ), same clinical trial
Assay type: in vivo, human
Details: PP
Excerpt: 3508 patients who were in accordance with the diagnostic standards of AMI for 28 days to 2 years and differentiated as Qi deficiency and blood stagnation syndrome by TCM were studied. 0.5 g Chinese medicine composition prepared by the method of EXAMPLE 1 (Coded as QSYQ) was administrated half an hour after meal, 3 times per day.
There were 19 questions in the Seattle angina questionnaire (SAQ), including 5 parts: physical limitation (PL), anginal stability (AS), anginal frequency (AF), treatment satisfaction (TS) and disease perception (DP). After being given necessary explanation by doctors, the questions were answered independently by patients.
They included the overall survival time, angina pectoris score, TCM symptom score and life quality score, where angina pectoris score, TCM symptom score and life quality score were evaluated at randomization, in 1st, 3rd, 6th, 9th, 12th month after treatment and 18th month after follow-up.
All evaluation results of SAQ were described during the period of observation, and Wilcoxon rank sum test was used for inter-group comparison.
The evaluation results in the SAQ were depicted in different observations, and inter-group comparison was tested by Wilcoxon Rank-sum test.

## CC(=O)Oc1ccccc1C(=O)O [Control group, aspirine]
3 months after treatment
  11th question: Often worried, patients (%): (19.03%)
  11th question: Seldom worried, patients (%): (30.12%)
  SAQ 4th question, 1-2 times per week: % of patients: (17.09%)
  SAQ 4th question, 1-2 times per week: number of patients: 251
  SAQ 4th question, 1-3 times per day: % of patients: (5.31%)
  SAQ 4th question, 1-3 times per day: number of patients: 78
  SAQ 4th question, <1 time per week: % of patients: (10.35%)
  SAQ 4th question, <1 time per week: number of patients: 152
  SAQ 4th question, Not used: % of patients: (56.71%)
  SAQ 4th question, Not used: number of patients: 833
  SAQ 4th question, ≧3 times per week: % of patients: (10.55%)
  SAQ 4th question, ≧3 times per week: number of patients: 155
  SAQ 4th question, ≧4 times per day: % of patients: (0.00%)
  SAQ 4th question, ≧4 times per day: number of patients: 0
  SAQ 5th question, Few: % of patients: (24.57%)
  SAQ 5th question, Few: number of patients: 361
  SAQ 5th question, Mild: % of patients: (26.14%)
  SAQ 5th question, Mild: number of patients: 384
  SAQ 5th question, Moderate: % of patients: (16.13%)
  SAQ 5th question, Moderate: number of patients: 237
  SAQ 5th question, None: % of patients: (27.16%)
  SAQ 5th question, None: number of patients: 399
  SAQ 5th question, Not medicated by doctors: % of patients: (4.56%)
  SAQ 5th question, Not medicated by doctors: number of patients: 67
  SAQ 5th question, Severe: % of patients: (1.43%)
  SAQ 5th question, Severe: number of patients: 21
  SAQ 6th question, Dissatisfied: % of patients: (0.07%)
  SAQ 6th question, Dissatisfied: number of patients: 1
  SAQ 6th question, Highly satisfied: % of patients: (20.04%)
  SAQ 6th question, Highly satisfied: number of patients: 295
  SAQ 6th question, Mostly dissatisfied: % of patients: (2.51%)
  SAQ 6th question, Mostly dissatisfied: number of patients: 37
  SAQ 6th question, Mostly satisfied: % of patients: (51.09%)
  SAQ 6th question, Mostly satisfied: number of patients: 752
  SAQ 6th question, Partly satisfied: % of patients: (26.29%)
  SAQ 6th question, Partly satisfied: number of patients: 387
  SAQ 7th question, Dissatisfied: % of patients: (0.07%)
  SAQ 7th question, Dissatisfied: number of patients: 1
  SAQ 7th question, Highly satisfied: % of patients: (23.06%)
  SAQ 7th question, Highly satisfied: number of patients: 339
  SAQ 7th question, Mostly dissatisfied: % of patients: (1.84%)
  SAQ 7th question, Mostly dissatisfied: number of patients: 27
  SAQ 7th question, Mostly satisfied: % of patients: (53.47%)
  SAQ 7th question, Mostly satisfied: number of patients: 786
  SAQ 7th question, Partly satisfied: % of patients: (21.56%)
  SAQ 7th question, Partly satisfied: number of patients: 317
  SAQ Question 1-1 Mildly limited, number of patients: 22
  SAQ Question 1-1 Mildly limited, percent of patients: (1.50%)
  SAQ Question 1-1 Moderately limited, number of patients: 6
  SAQ Question 1-1 Moderately limited, percent of patients: (0.41%)
  SAQ Question 1-1 Not limited, number of patients: 1381
  SAQ Question 1-1 Not limited, percent of patients: (93.95%)
  SAQ Question 1-1 Other reasons, number of patients: 3
  SAQ Question 1-1 Other reasons, percent of patients: (0.20%)
  SAQ Question 1-1 Severely limited, number of patients: 0
  SAQ Question 1-1 Severely limited, percent of patients: (0.00%)
  SAQ Question 1-1 Slightly limited, number of patients: 58
  SAQ Question 1-1 Slightly limited, percent of patients: (3.95%)
  SAQ Question 1-2 Mildly limited, number of patients: 19
  SAQ Question 1-2 Mildly limited, percent of patients: (1.29%)
  SAQ Question 1-2 Moderately limited, number of patients: 8
  SAQ Question 1-2 Moderately limited, percent of patients: (0.54%)
  SAQ Question 1-2 Not limited, number of patients: 1353
  SAQ Question 1-2 Not limited, percent of patients: (92.04%)
  SAQ Question 1-2 Other reasons, number of patients: 6
  SAQ Question 1-2 Other reasons, percent of patients: (0.41%)
  SAQ Question 1-2 Severely limited, number of patients: 0
  SAQ Question 1-2 Severely limited, percent of patients: (0.00%)
  SAQ Question 1-2 Slightly limited, number of patients: 84
  SAQ Question 1-2 Slightly limited, percent of patients: (5.71%)
  SAQ Question 1-6: Mildly limited, patients (%): (17.92%)
  SAQ Question 1-6: Moderately limited, patients (%): (13.89%)
  SAQ Question 1-6: Not limited, patients (%): (30.92%)
  SAQ Question 1-6: Other reasons, patients (%): (0.96%)
  SAQ Question 1-6: Severely limited, patients (%): (3.83%)
  SAQ Question 1-6: Slightly limited, patients (%): (32.49%)
  SAQ Question 1-7: Mildly limited, patients (%): (23.81%)
  SAQ Question 1-7: Moserately limited, patients (%): (14.91%)
  SAQ Question 1-7: Not limited, patients (%): (13.46%)
  SAQ Question 1-7: Other reasons, patients (%): (3.11%)
  SAQ Question 1-7: Severely limited, patients (%): (16.01%)
  SAQ Question 1-7: Slightly limited, patients (%): (28.71%)
  SAQ Question 1-8: Mildly limited, patients (%): (25.82%)
  SAQ Question 1-8: Moderately limited, patients (%): (17.90%)
  SAQ Question 1-8: Not limited, patients (%): (10.48%)
  SAQ Question 1-8: Other reasons, patients (%): (2.91%)
  SAQ Question 1-8: Severely limieted, patients (%): (21.30%)
  SAQ Question 1-8: Slightly limited, patients (%): (21.58%)
6 months after treatment
  8th question: Dissatisfied, patients (%): (0.07%)
  8th question: Highly satisfied, patients (%): (20.69%)
  8th question: Mostly satisfied, patients (%): (56.70%)
  8th question: Partly satisfied, patients (%): (20.96%)
  9th question: Few, patients (%): (34.99%)
  9th question: Mild, patients (%): (34.44%)
  9th question: Moderate, patients (%): (10.54%)
  9th question: Severe, patients (%): (0.21%)
  9th question: Uneffective, patients (%): (19.83%)
  10th question: Dissatisfied, patients (%): (20.36%)
  10th question: Highly satisfied, patients (%): (4.88%)
  10th question: Mostly dissatisfied, patients (%): (21.32%)
  10th question: Mostly satisfied, patients (%): (26.34%)
  10th question: Partly satisfied, patients (%): (27.10%)
  11th question: Continuously worried, patients (%): (3.44%)
  11th question: No worried, patients (%): (4.81%)
  11th question: Occasionally worried, patients (%): (42.68%)
  11th question: Often worried, patients (%): (14.57%)
  11th question: Seldom worried, patients (%): (34.50%)
  SAQ 4th question, 1-2 times per week: % of patients: (18.08%)
  SAQ 4th question, 1-2 times per week: number of patients: 263
  SAQ 4th question, 1-3 times per day: % of patients: (3.85%)
  SAQ 4th question, 1-3 times per day: number of patients: 56
  SAQ 4th question, <1 time per week: % of patients: (11.34%)
  SAQ 4th question, <1 time per week: number of patients: 165
  SAQ 4th question, Not used: % of patients: (60.14%)
  SAQ 4th question, Not used: number of patients: 875
  SAQ 4th question, ≧3 times per week: % of patients: (6.53%)
  SAQ 4th question, ≧3 times per week: number of patients: 95
  SAQ 4th question, ≧4 times per day: % of patients: (0.07%)
  SAQ 4th question, ≧4 times per day: number of patients: 1
  SAQ 5th question, 1-2 times per week: % of patients: (27.01%)
  SAQ 5th question, 1-2 times per week: number of patients: 393
  SAQ 5th question, 1-3 times per day: % of patients: (11.00%)
  SAQ 5th question, 1-3 times per day: number of patients: 160
  SAQ 5th question, <1 time per week: % of patients: (28.18%)
  SAQ 5th question, <1 time per week: number of patients: 410
  SAQ 5th question, No onset: % of patients: (4.47%)
  SAQ 5th question, No onset: number of patients: 65
  SAQ 5th question, ≧3 times per week: % of patients: (28.93%)
  SAQ 5th question, ≧3 times per week: number of patients: 421
  SAQ 5th question, ≧4 times per day: % of patients: (0.41%)
  SAQ 5th question, ≧4 times per day: number of patients: 6
  SAQ 6th question, Dissatisfied: % of patients: (0.00%)
  SAQ 6th question, Dissatisfied: number of patients: 0
  SAQ 6th question, Highly satisfied: % of patients: (22.27%)
  SAQ 6th question, Highly satisfied: number of patients: 324
  SAQ 6th question, Mostly dissatisfied: % of patients: (1.65%)
  SAQ 6th question, Mostly dissatisfied: number of patients: 24
  SAQ 6th question, Mostly satisfied: % of patients: (55.95%)
  SAQ 6th question, Mostly satisfied: number of patients: 814
  SAQ 6th question, Partly satisfied: % of patients: (20.14%)
  SAQ 6th question, Partly satisfied: number of patients: 293
  SAQ 7th question, Dissatisfied: % of patients: (0.07%)
  SAQ 7th question, Dissatisfied: number of patients: 1
  SAQ 7th question, Highly satisfied: % of patients: (25.67%)
  SAQ 7th question, Highly satisfied: number of patients: 373
  SAQ 7th question, Mostly dissatisfied: % of patients: (1.10%)
  SAQ 7th question, Mostly dissatisfied: number of patients: 16
  SAQ 7th question, Mostly satisfied: % of patients: (58.22%)
  SAQ 7th question, Mostly satisfied: number of patients: 846
  SAQ 7th question, Partly satisfied: % of patients: (14.93%)
  SAQ 7th question, Partly satisfied: number of patients: 217
  SAQ Question 1-1 Mildly limited, number of patients: 22
  SAQ Question 1-1 Mildly limited, percent of patients: (1.52%)
  SAQ Question 1-1 Moderately limited, number of patients: 4
